From ChEMBL document CHEMBL1201862, “PubChem BioAssay data set” (2004)
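These data come from cells grown in 96-well plates and exposed to compound for 48 hours at five concentrations. GI50 is the concentration that inhibits growth by half.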 The source made the active and inactive calls. Cut-off read from the data, not from the text of the source: active = GI50 up to about 1.1 µM and inactive = higher.

Key:
Experiment in all cases: DTP human tumour cell line panel, 48 h
RXF 393 = system: RXF 393
NCI-H460 = system: NCI-H460
TK-10 = system: TK-10
A498 = system: A498
MCF7 = system: MCF7
ACHN = system: ACHN
786-0 = system: 786-0
LOX IMVI = system: LOX IMVI
CAKI-1 = system: CAKI-1
SK-OV-3 = system: SK-OV-3
HL-60 = system: HL-60
MDA-MB-435 = system: MDA-MB-435
NCI-H23 = system: NCI-H23
IGROV-1 = system: IGROV-1
MOLT-4 = system: MOLT-4
UACC-62 = system: UACC-62
HCC 2998 = system: HCC 2998
SK-MEL-5 = system: SK-MEL-5
M14 = system: M14
SNB-75 = system: SNB-75
NCI-H522 = system: NCI-H522
OVCAR-3 = system: OVCAR-3
OVCAR-5 = system: OVCAR-5
MDA-MB-231 = system: MDA-MB-231
A549 = system: A549
UO-31 = system: UO-31
KM12 = system: KM12
U-251 = system: U-251
BT-549 = system: BT-549
HOP-62 = system: HOP-62
DU-145 = system: DU-145
SR = system: SR
COLO 205 = system: COLO 205
PC-3 = system: PC-3
SF-539 = system: SF-539
HT-29 = system: HT-29
NCI/ADR-RES = system: NCI/ADR-RES
SF-268 = system: SF-268
RPMI-8226 = system: RPMI-8226
SK-MEL-28 = system: SK-MEL-28
OVCAR-4 = system: OVCAR-4
SF-295 = system: SF-295
T47D = system: T47D
SK-MEL-2 = system: SK-MEL-2
K562 = system: K562
HCT-15 = system: HCT-15
NCI-H226 = system: NCI-H226
CCRF-CEM = system: CCRF-CEM
HOP-92 = system: HOP-92
SNB-19 = system: SNB-19
SN12C = system: SN12C
OVCAR-8 = system: OVCAR-8
UACC-257 = system: UACC-257
SW-620 = system: SW-620
EKVX = system: EKVX
MDA-N = system: MDA-N
HCT-116 = system: HCT-116
Malme-3M = system: Malme-3M
Hs-578T = system: Hs-578T

CCOC(=O)/C=C(/C(=O)OCC)n1ccc(=O)n(Cc2cnnn2COCCOC(C)=O)c1=O
GI50 (RXF 393): 15.4 µM (inactive)
GI50 (NCI-H460): > 43 µM (inactive)
GI50 (TK-10): 7.26 µM (inactive)
GI50 (A498): 24 µM (inactive)
GI50 (MCF7): 10.4 µM (inactive)
GI50 (ACHN): 8.73 µM (inactive)
GI50 (786-0): 10 µM (inactive)
GI50 (LOX IMVI): 17.1 µM (inactive)
GI50 (CAKI-1): 5.93 µM (inactive)
GI50 (SK-OV-3): > 100 µM (inactive)
GI50 (HL-60): 0.018 µM (active)
GI50 (MDA-MB-435): 16.6 µM (inactive)
GI50 (NCI-H23): 17.1 µM (inactive)
GI50 (IGROV-1): 17.9 µM (inactive)
GI50 (MOLT-4): 4.51 µM (inactive)
GI50 (UACC-62): 17.3 µM (inactive)
GI50 (HCC 2998): 16.2 µM (inactive)
GI50 (SK-MEL-5): 19.1 µM (inactive)
GI50 (M14): 17.1 µM (inactive)
GI50 (SNB-75): 41.2 µM (inactive)
GI50 (NCI-H522): 1.95 µM (inactive)
GI50 (OVCAR-3): 14.9 µM (inactive)
GI50 (OVCAR-5): 18.2 µM (inactive)
GI50 (MDA-MB-231): 18.6 µM (inactive)
GI50 (A549): 41.1 µM (inactive)
GI50 (UO-31): 16 µM (inactive)
GI50 (KM12): 28.6 µM (inactive)
GI50 (U-251): 17.9 µM (inactive)
GI50 (BT-549): 19.5 µM (inactive)
GI50 (HOP-62): > 73.1 µM (inactive)
GI50 (DU-145): 20.7 µM (inactive)
GI50 (SR): 13.4 µM (inactive)
GI50 (COLO 205): 2.92 µM (inactive)
GI50 (PC-3): 17.5 µM (inactive)
GI50 (SF-539): 11 µM (inactive)
GI50 (HT-29): 17.5 µM (inactive)
GI50 (NCI/ADR-RES): 21.9 µM (inactive)
GI50 (SF-268): 20 µM (inactive)
GI50 (RPMI-8226): 10.9 µM (inactive)
GI50 (SK-MEL-28): 16.3 µM (inactive)
GI50 (OVCAR-4): 20 µM (inactive)
GI50 (SF-295): > 100 µM (inactive)
GI50 (T47D): 9.57 µM (inactive)
GI50 (SK-MEL-2): 19.9 µM (inactive)
GI50 (K562): 4.05 µM (inactive)
GI50 (HCT-15): 8.77 µM
GI50 (NCI-H226): 24.3 µM (inactive)
GI50 (CCRF-CEM): 0.713 µM (active)
GI50 (HOP-92): 2.08 µM (inactive)
GI50 (SNB-19): > 31.6 µM (inactive)
GI50 (SN12C): 22.1 µM (inactive)
GI50 (OVCAR-8): 16.6 µM (inactive)
GI50 (UACC-257): 16.8 µM (inactive)
GI50 (SW-620): 3.98 µM (inactive)
GI50 (EKVX): 16.5 µM (inactive)
GI50 (MDA-N): 23.2 µM (inactive)
GI50 (HCT-116): 18.9 µM (inactive)
GI50 (Malme-3M): 12.5 µM (inactive)
GI50 (Hs-578T): 21 µM (inactive)
